Assay results published in patent publication US10760110B2, “Antibiotic testing and screening system” (priority 2017, dated 2020).
Like-named read-outs stand apart in the source and are kept apart here.

Tested on: K. pneumoniae NVT1001 strains with ESBL or AmpC β-lactamase plasmids
Experiment: Etest MIC of β-lactams, OmpK35/36 loss, ΔramR and/or extended-spectrum β-lactamase and AmpC β-lactamase (Table 8)
Assay type: cell-based, Klebsiella pneumoniae
Settings: Klebsiella pneumoniae
Experimental: DNA fragments of the resistance genes along with their flanking regions were amplified from clinical plasmids via PCR with specific primer pairs. The resulting PCR fragments were digested and then cloned into the plasmid pACYC177 or pACYC184. The resulting plasmids were then transformed into K. pneumoniae strain NVT1001 via electroporation. The recombinant bacteria were plated onto LB agar plates containing kanamycin (50 mg/L) or chloramphenicol (50 mg/L), and the presence of the cloned gene was confirmed via PCR and DNA sequencing.
The MICs of antibiotics were determined using the Etest (Biodisk AB, Sweden) according to the manufacturer's instructions. The MICs from the Etest, which fall between standard two-fold dilutions, were rounded up to the next highest two-fold value. The MICs of ceftazidime and cefotaxime against K. pneumoniae NVT1001 harbouring the pACYC177 plasmid with blaOXA-48 were further determined using a broth microdilution test according to the recommendations of the CLSI,^25 and the results were interpreted according to the breakpoints established by the CLSI in 2017.^25 Meanwhile, due to the lack of CLSI breakpoints in 2016 and 2017, the results for cephalothin were interpreted according to the breakpoints established by the CLSI in 2015,^26 and the results for moxifloxacin were interpreted according to the breakpoints established by the EUCAST in 2017.^27

[1] = CMY-2 on pACYC177, WT (NVT1001), read-out: MIC
[2] = CMY-2 on pACYC177, Δ35 (ΔompK35 mutant)
[3] = CMY-2 on pACYC177, Δ35/36 (ΔompK35/36 mutant)
[4] = CMY-2 on pACYC177, Δ36 (ΔompK36 mutant)
[5] = CMY-2 on pACYC177, ΔramR mutant
[6] = CMY-2 on pACYC177, ΔramRΔ35 (ΔramRΔompK35 mutant)
[7] = CMY-2 on pACYC177, ΔramRΔ35/36 (ΔramRΔompK35/36 mutant)
[8] = CMY-2 on pACYC177, ΔramRΔ36 (ΔramRΔompK36 mutant)
[9] = CTX-M-14 on pACYC177, WT (NVT1001), read-out: MIC
[10] = CTX-M-14 on pACYC177, Δ35 (ΔompK35 mutant)
[11] = CTX-M-14 on pACYC177, Δ35/36 (ΔompK35/36 mutant)
[12] = CTX-M-14 on pACYC177, Δ36 (ΔompK36 mutant)
[13] = CTX-M-14 on pACYC177, ΔramR mutant
[14] = CTX-M-14 on pACYC177, ΔramRΔ35 (ΔramRΔompK35 mutant)
[15] = CTX-M-14 on pACYC177, ΔramRΔ35/36 (ΔramRΔompK35/36 mutant)
[16] = CTX-M-14 on pACYC177, ΔramRΔ36 (ΔramRΔompK36 mutant)
[17] = CTX-M-15 on pACYC177, WT (NVT1001), read-out: MIC
[18] = CTX-M-15 on pACYC177, Δ35 (ΔompK35 mutant)
[19] = CTX-M-15 on pACYC177, Δ35/36 (ΔompK35/36 mutant)
[20] = CTX-M-15 on pACYC177, Δ36 (ΔompK36 mutant)
[21] = CTX-M-15 on pACYC177, ΔramR mutant
[22] = CTX-M-15 on pACYC177, ΔramRΔ35 (ΔramRΔompK35 mutant)
[23] = CTX-M-15 on pACYC177, ΔramRΔ35/36 (ΔramRΔompK35/36 mutant)
[24] = CTX-M-15 on pACYC177, ΔramRΔ36 (ΔramRΔompK36 mutant)
[25] = DHA-1-AmpR on pACYC177, WT (NVT1001), read-out: MIC
[26] = DHA-1-AmpR on pACYC177, Δ35 (ΔompK35 mutant)
[27] = DHA-1-AmpR on pACYC177, Δ35/36 (ΔompK35/36 mutant)
[28] = DHA-1-AmpR on pACYC177, Δ36 (ΔompK36 mutant)
[29] = DHA-1-AmpR on pACYC177, ΔramR mutant
[30] = DHA-1-AmpR on pACYC177, ΔramRΔ35 (ΔramRΔompK35 mutant)
[31] = DHA-1-AmpR on pACYC177, ΔramRΔ35/36 (ΔramRΔompK35/36 mutant)
[32] = DHA-1-AmpR on pACYC177, ΔramRΔ36 (ΔramRΔompK36 mutant)
[33] = SHV-12 on pACYC177, WT (NVT1001), read-out: MIC
[34] = SHV-12 on pACYC177, Δ35 (ΔompK35 mutant)
[35] = SHV-12 on pACYC177, Δ35/36 (ΔompK35/36 mutant)
[36] = SHV-12 on pACYC177, Δ36 (ΔompK36 mutant)
[37] = SHV-12 on pACYC177, ΔramR mutant
[38] = SHV-12 on pACYC177, ΔramRΔ35 (ΔramRΔompK35 mutant)
[39] = SHV-12 on pACYC177, ΔramRΔ35/36 (ΔramRΔompK35/36 mutant)
[40] = SHV-12 on pACYC177, ΔramRΔ36 (ΔramRΔompK36 mutant)
[41] = no supplemental plasmid, WT (NVT1001), read-out: MIC
[42] = no supplemental plasmid, Δ35 (ΔompK35 mutant)
[43] = no supplemental plasmid, Δ35/36 (ΔompK35/36 mutant)
[44] = no supplemental plasmid, Δ36 (ΔompK36 mutant)
[45] = no supplemental plasmid, ΔramR mutant
[46] = no supplemental plasmid, ΔramRΔ35 (ΔramRΔompK35 mutant)
[47] = no supplemental plasmid, ΔramRΔ35/36 (ΔramRΔompK35/36 mutant)
[48] = no supplemental plasmid, ΔramRΔ36 (ΔramRΔompK36 mutant)

CO/N=C(\C(=O)N[C@@H]1C(=O)N2C(C(=O)O)=C(COC(N)=O)CS[C@H]12)c1ccco1 [Cefuroxime] was tested, and the MIC [1] was 256 µg/mL, the MIC [2] was 256 µg/mL and the MIC [3] was over 256 µg/mL. It also gave an MIC [4] of over 256 µg/mL, an MIC [5] of over 256 µg/mL and an MIC [6] of over 256 µg/mL. It also gave an MIC [7] of over 256 µg/mL, an MIC [8] of over 256 µg/mL and an MIC [9] of over 256 µg/mL. For the same molecule, the MIC [10] was over 256 µg/mL, the MIC [11] was over 256 µg/mL and the MIC [12] was over 256 µg/mL. It also gave an MIC [13] of over 256 µg/mL, an MIC [14] of over 256 µg/mL and an MIC [15] of over 256 µg/mL. For the same molecule, the MIC [16] was over 256 µg/mL, the MIC [17] was over 256 µg/mL and the MIC [18] was over 256 µg/mL. The MIC [19] was over 256 µg/mL, the MIC [20] was over 256 µg/mL and the MIC [21] was over 256 µg/mL. The MIC [22] was over 256 µg/mL, the MIC [23] was over 256 µg/mL and the MIC [24] was over 256 µg/mL. The MIC [25] was over 256 µg/mL, the MIC [26] was over 256 µg/mL and the MIC [27] was over 256 µg/mL. For the same molecule, the MIC [28] was over 256 µg/mL, the MIC [29] was over 256 µg/mL and the MIC [30] was over 256 µg/mL. The MIC [31] was over 256 µg/mL, the MIC [32] was over 256 µg/mL and the MIC [33] was 64 µg/mL. It also gave an MIC [34] of 64 µg/mL, an MIC [35] of over 256 µg/mL and an MIC [36] of 128 µg/mL. For the same molecule, the MIC [37] was 256 µg/mL, the MIC [38] was 128 µg/mL and the MIC [39] was over 256 µg/mL. For the same molecule, the MIC [40] was over 256 µg/mL, the MIC [41] was 4 µg/mL and the MIC [42] was 8 µg/mL. The MIC [43] was 32 µg/mL, the MIC [44] was 16 µg/mL and the MIC [45] was 32 µg/mL. It also gave an MIC [46] of 64 µg/mL, an MIC [47] of 128 µg/mL and an MIC [48] of over 256 µg/mL.
For CC(C)(O/N=C(\C(=O)N[C@@H]1C(=O)N2C(C(=O)[O-])=C(C[n+]3ccccc3)CS[C@H]12)c1csc(N)n1)C(=O)O [Ceftazidime], the MIC [1] was over 256 µg/mL, the MIC [2] was over 256 µg/mL and the MIC [3] was over 256 µg/mL. For the same molecule, the MIC [4] was over 256 µg/mL, the MIC [5] was over 256 µg/mL and the MIC [6] was over 256 µg/mL. For the same molecule, the MIC [7] was over 256 µg/mL, the MIC [8] was over 256 µg/mL and the MIC [9] was 1 µg/mL. It also gave an MIC [10] of 4 µg/mL, an MIC [11] of 8 µg/mL and an MIC [12] of 2 µg/mL. For the same molecule, the MIC [13] was 8 µg/mL, the MIC [14] was 8 µg/mL and the MIC [15] was 16 µg/mL. It also gave an MIC [16] of 8 µg/mL, an MIC [17] of 64 µg/mL and an MIC [18] of over 256 µg/mL. For the same molecule, the MIC [19] was over 256 µg/mL, the MIC [20] was 64 µg/mL and the MIC [21] was 256 µg/mL. For the same molecule, the MIC [22] was over 256 µg/mL, the MIC [23] was over 256 µg/mL and the MIC [24] was over 256 µg/mL. For the same molecule, the MIC [25] was 16 µg/mL, the MIC [26] was 128 µg/mL and the MIC [27] was over 256 µg/mL. It also gave an MIC [28] of 32 µg/mL, an MIC [29] of 64 µg/mL and an MIC [30] of 64 µg/mL. It also gave an MIC [31] of 128 µg/mL, an MIC [32] of 64 µg/mL and an MIC [33] of 64 µg/mL. It also gave an MIC [34] of over 256 µg/mL, an MIC [35] of over 256 µg/mL and an MIC [36] of 128 µg/mL. For the same molecule, the MIC [37] was over 256 µg/mL, the MIC [38] was over 256 µg/mL and the MIC [39] was over 256 µg/mL. It also gave an MIC [40] of over 256 µg/mL, an MIC [41] of 0.25 µg/mL and an MIC [42] of 0.5 µg/mL. The MIC [43] was 1 µg/mL, the MIC [44] was 0.5 µg/mL and the MIC [45] was 2 µg/mL. It also gave an MIC [46] of 2 µg/mL, an MIC [47] of 2 µg/mL and an MIC [48] of 2 µg/mL.
Molecule CO/N=C(\C(=O)N[C@@H]1C(=O)N2C(C(=O)O)=C(COC(C)=O)CS[C@H]12)c1csc(N)n1 [Cefotaxime] has an MIC [1] of 64 µg/mL, an MIC [2] of 128 µg/mL and an MIC [3] of over 256 µg/mL. For the same molecule, the MIC [4] was over 256 µg/mL, the MIC [5] was 128 µg/mL and the MIC [6] was 128 µg/mL. It also gave an MIC [7] of over 256 µg/mL, an MIC [8] of over 256 µg/mL and an MIC [9] of 64 µg/mL. The MIC [10] was 128 µg/mL, the MIC [11] was over 256 µg/mL and the MIC [12] was over 256 µg/mL. The MIC [13] was 128 µg/mL, the MIC [14] was 128 µg/mL and the MIC [15] was over 256 µg/mL. For the same molecule, the MIC [16] was over 256 µg/mL, the MIC [17] was over 256 µg/mL and the MIC [18] was over 256 µg/mL. The MIC [19] was over 256 µg/mL, the MIC [20] was over 256 µg/mL and the MIC [21] was over 256 µg/mL. It also gave an MIC [22] of over 256 µg/mL, an MIC [23] of over 256 µg/mL and an MIC [24] of over 256 µg/mL. For the same molecule, the MIC [25] was 8 µg/mL, the MIC [26] was 16 µg/mL and the MIC [27] was 64 µg/mL. For the same molecule, the MIC [28] was 16 µg/mL, the MIC [29] was 16 µg/mL and the MIC [30] was 16 µg/mL. For the same molecule, the MIC [31] was 64 µg/mL, the MIC [32] was 64 µg/mL and the MIC [33] was 32 µg/mL. The MIC [34] was 32 µg/mL, the MIC [35] was over 256 µg/mL and the MIC [36] was 32 µg/mL. It also gave an MIC [37] of 64 µg/mL, an MIC [38] of 64 µg/mL and an MIC [39] of 256 µg/mL. It also gave an MIC [40] of 256 µg/mL, an MIC [41] of 0.06 µg/mL and an MIC [42] of 0.125 µg/mL. The MIC [43] was 2 µg/mL, the MIC [44] was 0.25 µg/mL and the MIC [45] was 1 µg/mL. It also gave an MIC [46] of 1 µg/mL, an MIC [47] of 4 µg/mL and an MIC [48] of 4 µg/mL.
